Laboratory results: paper PMC10318527, “Utilization of dietary mixed-linkage β-glucans by the Firmicute Blautia producta” (The Journal of Biological Chemistry, 2023)
Like-named read-outs stand apart in the source and are kept apart here.

Tests used:
BpGH16MLG = test: Initial screening of BpGH16MLG against substrates (TLC); type: biochemical, Blautia producta ATCC 27340; details: pH 5.7, 37 °C, 2 h
Description: After the appropriate incubation time, the reaction was terminated by boiling (5 min), and generated oligosaccharides were analyzed by thin layer chromatography (TLC). Typically, 1 μl of the reaction mixture was used for TLC analysis. TLC analysis was performed on Silica Gel 60 F254 (Merck), and produced sugars were visualized by spraying TLC with 5% H2SO4 in ethanol, followed by heating.

BpSBPMLG = BpSBPMLG (Blautia producta, UniProt A0ABX6JB09); test: Isothermal titration calorimetry of oligosaccharide binding to BpSBPMLG; parameters: species or system Blautia producta ATCC 27340; details: for -TΔS^0 / n (binding stoichiometry) / ΔG^0 / ΔH: ITC at 25 °C, 10 mM sodium phosphate pH 7.0
Description: The binding of β-(1,4), β-(1,3), and MLG-oligosaccharides to BpSBPMLG was measured at 25 °C in 10 mM sodium phosphate buffer (pH 7) using a MicroCal PEAQ-ITC (Malvern). The protein was extensively dialyzed against 10 mM sodium phosphate and all glycan ligands were also dissolved in the same buffer to minimize the heat of dilution. 13 injections of an oligosaccharide were titrated on BpSBPMLG present in the sample cell. Various preliminary titration setups were tried by changing amounts of protein (5–100 μM) and ligand (50 μM–10 mM) to get the best experimental conditions. Thermodynamic binding parameters [calculates binding affinity (Kd), stoichiometry (n), enthalpy (ΔH), Gibbs free energy change (ΔG), and entropy (ΔS)] were determined using the MicroCal PEAQ-ITC analysis software.

BpGH94MLG [1] = target: T1, BpGH94MLG (Blautia producta, UniProt A0A7G5MNS2); test: Phosphorolysis activity of BpGH94MLG on substrates (TLC); type: biochemical, Blautia producta ATCC 27340; details: inorganic phosphate, 37 °C
T1 sequence (A0A7G5MNS2 1-804): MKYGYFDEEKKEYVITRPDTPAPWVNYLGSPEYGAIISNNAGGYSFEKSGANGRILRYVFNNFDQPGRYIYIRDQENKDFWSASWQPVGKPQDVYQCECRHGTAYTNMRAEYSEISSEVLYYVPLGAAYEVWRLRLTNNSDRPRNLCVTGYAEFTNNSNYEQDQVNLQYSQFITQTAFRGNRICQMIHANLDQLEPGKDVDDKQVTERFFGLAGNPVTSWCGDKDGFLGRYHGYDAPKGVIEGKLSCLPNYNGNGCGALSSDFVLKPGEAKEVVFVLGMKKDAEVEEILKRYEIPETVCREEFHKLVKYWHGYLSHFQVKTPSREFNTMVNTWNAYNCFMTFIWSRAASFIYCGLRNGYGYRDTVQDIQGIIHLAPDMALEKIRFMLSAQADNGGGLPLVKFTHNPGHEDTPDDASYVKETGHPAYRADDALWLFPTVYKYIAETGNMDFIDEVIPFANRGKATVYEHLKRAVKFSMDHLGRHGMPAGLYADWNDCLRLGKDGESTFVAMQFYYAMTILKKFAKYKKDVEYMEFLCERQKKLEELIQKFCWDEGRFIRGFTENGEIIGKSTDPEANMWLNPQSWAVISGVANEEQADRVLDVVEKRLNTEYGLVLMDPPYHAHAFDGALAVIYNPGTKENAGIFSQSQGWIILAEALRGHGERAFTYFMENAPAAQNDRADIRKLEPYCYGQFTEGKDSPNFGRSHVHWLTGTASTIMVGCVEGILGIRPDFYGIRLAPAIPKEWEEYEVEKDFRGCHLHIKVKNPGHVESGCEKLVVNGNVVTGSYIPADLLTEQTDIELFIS
Description: (§1) TLC was used for analyzing enzymatic actions. […] Kinetics parameters for BpGH94MLG were determined with G4G3G, G4G4G3G and cellotriose, following a p-hydroxybenzoic acid hydrazide (PAHBAH) reducing sugar assay ([69]).

BpGH3-AR8MLG = BpGH3-AR8MLG (Blautia producta, UniProt A0ABX6J8C8); type: biochemical, Blautia producta ATCC 27340
Description: (§2) 150 μl of a freshly prepared 8:2 mixture of reagent A (50 mM sodium sulfite, 0.3 M 4-hydroxybenzhydrazide and 0.6 M HCl) and reagent B (50 mM trisodium citrate, 10 mM CaCl2, 0.5 M NaOH) were added to 50 μl sample. The reaction cocktail was boiled for 10 min at 100 °C. After the reaction was cooled down, the absorbance was recorded at 410 nm using the SpectraMax i3x multi-mode microplate reader. A calibration curve with different concentrations of glucose (0, 2, 4, 8, 16, 40, 80, 100, 200, 300, and 500 μM) was employed for each experiment to calculate the released amount of glucose (reducing end equivalents). The same samples were also used for control measurement, and the control value was subtracted from test reading prior to calculate kinetics parameters. In all cases, the Km, Vmax, and kcat were analyzed on GraphPad Prism. Three independent replicates were used for each test. TLC analyses were used for understanding the enzymatic degradation profiles of various oligosaccharides.

TaCDP = system: TaCDP; parameters: method as in PMID 28687766; details: phosphorolytic reaction; cited from earlier work
Rt/CtCDP = system: Rt/CtCDP; parameters: method as in PMID 12153715; details: phosphorolytic reaction; cited from earlier work
RaCDP = system: RaCDP; parameters: method as in PMID 23802549; details: phosphorolytic reaction; cited from earlier work
BpGH94MLG [2] = target: T1, BpGH94MLG; test: Phosphorolysis kinetics of BpGH94MLG (PAHBAH assay); type: biochemical, Blautia producta ATCC 27340
Description: as §1

BpGH3-X62MLG = target: T2, BpGH3-X62MLG (Blautia producta, UniProt A0ABX6JIM0); test: Hydrolysis kinetics of BpGH3-X62MLG (PAHBAH assay, TLC); details: TLC
T2 sequence (A0ABX6JIM0 1-920): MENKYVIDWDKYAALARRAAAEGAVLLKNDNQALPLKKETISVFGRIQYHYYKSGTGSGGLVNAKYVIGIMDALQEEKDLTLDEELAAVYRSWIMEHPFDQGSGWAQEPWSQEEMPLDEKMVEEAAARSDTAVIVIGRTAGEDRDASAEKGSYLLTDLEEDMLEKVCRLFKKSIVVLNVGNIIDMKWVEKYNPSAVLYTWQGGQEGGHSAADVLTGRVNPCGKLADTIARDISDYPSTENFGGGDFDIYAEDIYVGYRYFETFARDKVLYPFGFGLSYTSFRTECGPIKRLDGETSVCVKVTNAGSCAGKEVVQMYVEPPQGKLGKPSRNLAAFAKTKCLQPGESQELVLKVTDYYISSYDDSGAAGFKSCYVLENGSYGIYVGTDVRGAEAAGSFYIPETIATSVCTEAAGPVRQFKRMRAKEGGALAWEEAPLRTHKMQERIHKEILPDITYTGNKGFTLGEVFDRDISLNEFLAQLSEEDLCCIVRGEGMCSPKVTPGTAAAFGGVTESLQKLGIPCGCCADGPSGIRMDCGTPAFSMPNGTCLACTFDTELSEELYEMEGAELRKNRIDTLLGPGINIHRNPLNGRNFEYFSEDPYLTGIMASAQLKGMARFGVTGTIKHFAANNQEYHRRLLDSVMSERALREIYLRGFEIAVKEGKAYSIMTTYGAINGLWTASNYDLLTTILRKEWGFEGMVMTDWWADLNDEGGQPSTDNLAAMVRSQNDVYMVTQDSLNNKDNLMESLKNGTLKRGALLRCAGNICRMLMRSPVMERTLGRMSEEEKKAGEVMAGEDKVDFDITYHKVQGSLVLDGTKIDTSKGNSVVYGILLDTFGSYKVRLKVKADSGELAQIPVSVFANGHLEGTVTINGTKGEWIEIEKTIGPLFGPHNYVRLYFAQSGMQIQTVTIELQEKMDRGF
Description: as §2

[3] = target: β-mannooligosaccharide binding protein of Roseburia; parameters: method as in PMID 30796211; details: cited from earlier work
BpGH16MLG (BPGH16) = test: Michaelis-Menten kinetics of BpGH16MLG on β-glucans (DNS assay); type: biochemical, Blautia producta ATCC 27340; details: native BPGH16; DNS assay; pH 5.7, 37 °C
Description: Then, reactions were terminated by boiling for 5 min. Enzymatic assays were determined with 3,5- dinitrosalicylic acid (DNS) assay ([85]). In brief, 0.05 g Na2SO3 and 1 g DNS were mixed in a 50 ml water-containing reagent bottle and stirred about 6 h using a magnetic stirrer. After that, 200 μl phenol was added and made up to 100 ml. A working solution of DNS was prepared by adding 50 μl glucose (20% (w/v) stock) in prepared 100 ml of reagent mixtures and immediately used for experiments without adding NaOH. 80 μl DNS reagent was added to the reaction mixtures and incubated at 100 °C for 10 min, followed by ice-cooling for 10 min. Consequently, recorded the developed color spectrophotometrically at 575 nm ([85]). A standard curve generated by different concentrations of maltose was used for determining released reducing sugars in each case.

B. producta ATCC 27340 [4] = system: B. producta ATCC 27340; parameters: method as in PMID 33043794; details: cited from earlier work
B. producta ATCC 27340 [5] = test: Growth of B. producta on β-glucans; type: cell-based, Blautia producta ATCC 27340; details: minimal medium containing 1% glucan
Description: Active culture of B. producta and culture conditions were maintained following the recently reported procedure ([31]). Once B. producta grew, cells were centrifuged, and the obtained supernatant was decanted. A pellet of cells was then washed three times with phosphate-buffered saline (PBS) and washed cells were suspended in 2 ml PBS. […] The growth assessment experiments were performed for 96 h, following our recently established protocol ([82]).

[6] = PAHBAH assay, 100 mM HEPES pH 6.5, 37 °C

BpGH3-AR8MLG, sequence (A0ABX6J8C8 entry or part of it): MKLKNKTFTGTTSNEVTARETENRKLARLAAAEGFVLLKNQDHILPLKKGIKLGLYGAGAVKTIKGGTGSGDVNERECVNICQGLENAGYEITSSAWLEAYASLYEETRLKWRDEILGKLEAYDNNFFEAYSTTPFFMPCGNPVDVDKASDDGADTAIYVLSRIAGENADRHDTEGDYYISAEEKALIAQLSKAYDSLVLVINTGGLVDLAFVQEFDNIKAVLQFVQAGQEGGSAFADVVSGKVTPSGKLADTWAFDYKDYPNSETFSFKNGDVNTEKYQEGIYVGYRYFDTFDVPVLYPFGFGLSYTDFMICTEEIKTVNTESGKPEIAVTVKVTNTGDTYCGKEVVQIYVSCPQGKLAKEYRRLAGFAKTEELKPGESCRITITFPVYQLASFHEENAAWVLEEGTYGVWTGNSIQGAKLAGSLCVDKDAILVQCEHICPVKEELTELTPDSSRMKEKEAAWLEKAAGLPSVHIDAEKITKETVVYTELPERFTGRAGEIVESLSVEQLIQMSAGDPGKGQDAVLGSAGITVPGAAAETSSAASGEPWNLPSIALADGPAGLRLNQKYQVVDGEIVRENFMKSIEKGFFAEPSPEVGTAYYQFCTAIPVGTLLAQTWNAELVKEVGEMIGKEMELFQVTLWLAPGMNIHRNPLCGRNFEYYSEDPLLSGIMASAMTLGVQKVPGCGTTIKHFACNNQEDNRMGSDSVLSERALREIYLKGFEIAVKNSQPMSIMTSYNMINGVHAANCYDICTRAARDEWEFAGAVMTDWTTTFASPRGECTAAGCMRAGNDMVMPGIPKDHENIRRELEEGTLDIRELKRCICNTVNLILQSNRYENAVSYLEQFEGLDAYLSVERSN
BpSBPMLG, sequence (A0ABX6JB09 entry or part of it): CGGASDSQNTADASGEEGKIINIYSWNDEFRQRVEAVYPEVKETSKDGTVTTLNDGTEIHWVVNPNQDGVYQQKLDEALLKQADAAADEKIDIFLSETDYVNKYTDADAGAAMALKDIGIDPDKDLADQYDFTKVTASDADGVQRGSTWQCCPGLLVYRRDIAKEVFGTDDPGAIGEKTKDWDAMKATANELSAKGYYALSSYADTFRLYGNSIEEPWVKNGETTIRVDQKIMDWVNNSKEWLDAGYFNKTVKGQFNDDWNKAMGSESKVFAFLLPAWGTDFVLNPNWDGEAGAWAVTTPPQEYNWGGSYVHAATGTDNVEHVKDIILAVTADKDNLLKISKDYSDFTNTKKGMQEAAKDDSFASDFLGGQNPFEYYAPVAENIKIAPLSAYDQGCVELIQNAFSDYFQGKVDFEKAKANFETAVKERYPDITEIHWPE

Row | Molecule | activity of BpGH16MLG on substrate (initial screening) (BpGH16MLG) | Kd (BpSBPMLG) [nM] | -TΔS^0 (BpSBPMLG) [kcal/mol] | n (binding stoichiometry) (BpSBPMLG) | ΔG^0 (BpSBPMLG) [kcal/mol] | ΔH (BpSBPMLG) [kcal/mol] | phosphorolysis activity of BpGH94MLG (in words) (BpGH94MLG [1]) | Km (BpGH16MLG (BPGH16)) [mg/mL] | kcat (BpGH16MLG (BPGH16)) [s⁻¹] | further results
1 | OC[C@H]1O[C@@H](O[C@H]2[C@H](O)[C@@H](O)[C@H](O[C@H]3[C@H](O)[C@@H](O)C(O)O[C@@H]3CO)O[C@@H]2CO)[C@H](O)[C@@H](O)[C@@H]1O (stereo partly drawn) [Cellotriose] | did not show activity | 1740 | 0.8 | 0.77 ± 0.02 | -7.9 | -7.1 ± 0.31 | cleaved |  |  | Km (BpGH3-AR8MLG; [6]): 260 ± 30 µM; kcat (BpGH3-AR8MLG; [6]): 15 ± 0.2 s⁻¹; Km (TaCDP): 94 µM; kcat (TaCDP): 0.28 s⁻¹; Km (Rt/CtCDP): 810 µM; kcat (Rt/CtCDP): 4 s⁻¹; Km (RaCDP): 6.06 mM; kcat (RaCDP): 76.2 s⁻¹
2 | OC[C@H]1O[C@@H](O[C@H]2[C@H](O)[C@@H](O)[C@H](O[C@H]3[C@H](O)[C@@H](CO)OC(O)[C@@H]3O)O[C@@H]2CO)[C@H](O)[C@@H](O)[C@@H]1O (stereo partly drawn) [G4G3G, Glc-β-1-4-Glc-β-1-3-Glc] |  | 1010 | 4.4 | 0.42 ± 0.01 | -8.18 | -12.6 ± 0.32 | cleaved |  |  | Km lower compared to cellotriose (BpGH94MLG [2]): about 1.85 fold; cleavage by BpGH3-AR8MLG (in words) (BpGH3-AR8MLG; TLC): cleaved; cleavage by BpGH3-X62MLG (in words) (BpGH3-X62MLG): cleaved
3 | OC[C@H]1O[C@@H](O[C@H]2[C@H](O)[C@H](O)[C@H](O[C@H]3[C@H](O)[C@H](O)[C@H](O[C@H]4[C@H](O)[C@H](O)C(O)O[C@@H]4CO)O[C@@H]3CO)O[C@@H]2CO)[C@@H](O)[C@@H](O)[C@@H]1O (stereo partly drawn) [mannotetraose] |  |  |  |  |  |  |  |  |  | Kd [3]: 3.89 µM
4 | Laminarin | did cleave |  |  |  |  |  |  | 0.24 ± 0.03 | 43 ± 0.6 | growth of B. producta on the glucan (B. producta ATCC 27340 [4]): does not support the growth
5 | Lichenan | did cleave |  |  |  |  |  |  | 0.13 ± 0.02 | 36 ± 0.5 | growth of B. producta on the glucan (B. producta ATCC 27340 [5]): able to grow
